Test results as given in ChEMBL document CHEMBL3813615, “Novel JAK1-selective benzimidazole inhibitors with enhanced membrane permeability” (Bioorg Med Chem Lett, 2016).

Tests used:
[1] = biological target: Tyrosine-protein kinase JAK1 (Mus musculus, UniProt P52332); assay: Inhibition of FLAG-tagged mouse JAK1 expressed in insect Sf9 cells using biotin-EQEDEPEGDYFEWLE-NH2 as substrate
[2] = biological target: Tyrosine-protein kinase JAK1 (Homo sapiens, UniProt P23458); assay: Inhibition of JAK1 (unknown origin) using tyrosine 6 peptide as substrate by z'-lyte assay
[3] = biological target: Non-receptor tyrosine-protein kinase TYK2 (Homo sapiens, UniProt P29597); assay: Inhibition of TYK2 (unknown origin) using tyrosine 3 peptide as substrate by z'-lyte assay
[4] = biological target: T1, Tyrosine-protein kinase JAK3 (Homo sapiens, UniProt P52333); assay: Inhibition of JAK3 (unknown origin) using tyrosine 6 peptide as substrate by z'-lyte assay
T1 sequence (P52333 whole entry): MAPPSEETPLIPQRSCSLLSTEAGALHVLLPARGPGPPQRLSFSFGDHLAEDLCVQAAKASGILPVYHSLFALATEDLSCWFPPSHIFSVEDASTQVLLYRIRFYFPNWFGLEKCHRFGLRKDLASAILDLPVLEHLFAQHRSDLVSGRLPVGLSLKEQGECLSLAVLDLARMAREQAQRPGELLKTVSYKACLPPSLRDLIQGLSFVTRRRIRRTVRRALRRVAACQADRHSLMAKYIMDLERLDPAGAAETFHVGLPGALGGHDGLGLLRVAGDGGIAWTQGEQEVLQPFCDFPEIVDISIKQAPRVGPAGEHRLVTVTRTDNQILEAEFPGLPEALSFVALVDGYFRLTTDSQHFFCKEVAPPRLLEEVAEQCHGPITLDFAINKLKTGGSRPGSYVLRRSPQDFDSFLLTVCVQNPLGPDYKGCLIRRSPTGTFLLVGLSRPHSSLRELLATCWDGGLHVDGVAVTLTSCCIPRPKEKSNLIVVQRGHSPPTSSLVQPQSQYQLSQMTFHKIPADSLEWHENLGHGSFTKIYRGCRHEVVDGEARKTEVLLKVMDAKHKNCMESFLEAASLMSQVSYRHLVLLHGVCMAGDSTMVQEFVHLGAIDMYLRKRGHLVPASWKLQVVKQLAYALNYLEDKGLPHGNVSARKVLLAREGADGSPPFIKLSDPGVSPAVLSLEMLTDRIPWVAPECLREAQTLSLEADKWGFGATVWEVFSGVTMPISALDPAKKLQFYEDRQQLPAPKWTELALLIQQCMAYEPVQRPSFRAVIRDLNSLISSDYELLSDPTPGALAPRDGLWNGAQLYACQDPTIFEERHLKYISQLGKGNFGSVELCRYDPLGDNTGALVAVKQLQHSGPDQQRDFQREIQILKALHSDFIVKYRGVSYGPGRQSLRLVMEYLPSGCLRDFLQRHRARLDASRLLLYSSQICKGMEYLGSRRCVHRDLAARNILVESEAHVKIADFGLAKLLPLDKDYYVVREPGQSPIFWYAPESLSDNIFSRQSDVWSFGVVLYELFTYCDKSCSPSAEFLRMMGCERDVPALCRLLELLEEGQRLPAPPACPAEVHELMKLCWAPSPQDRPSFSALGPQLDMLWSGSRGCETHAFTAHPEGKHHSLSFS

[5] = biological target: Tyrosine-protein kinase JAK2 (Homo sapiens, UniProt O60674); assay: Inhibition of JAK2 (unknown origin) using tyrosine 6 peptide as substrate by z'-lyte assay
Chain of Tyrosine-protein kinase JAK2 (O60674 whole entry): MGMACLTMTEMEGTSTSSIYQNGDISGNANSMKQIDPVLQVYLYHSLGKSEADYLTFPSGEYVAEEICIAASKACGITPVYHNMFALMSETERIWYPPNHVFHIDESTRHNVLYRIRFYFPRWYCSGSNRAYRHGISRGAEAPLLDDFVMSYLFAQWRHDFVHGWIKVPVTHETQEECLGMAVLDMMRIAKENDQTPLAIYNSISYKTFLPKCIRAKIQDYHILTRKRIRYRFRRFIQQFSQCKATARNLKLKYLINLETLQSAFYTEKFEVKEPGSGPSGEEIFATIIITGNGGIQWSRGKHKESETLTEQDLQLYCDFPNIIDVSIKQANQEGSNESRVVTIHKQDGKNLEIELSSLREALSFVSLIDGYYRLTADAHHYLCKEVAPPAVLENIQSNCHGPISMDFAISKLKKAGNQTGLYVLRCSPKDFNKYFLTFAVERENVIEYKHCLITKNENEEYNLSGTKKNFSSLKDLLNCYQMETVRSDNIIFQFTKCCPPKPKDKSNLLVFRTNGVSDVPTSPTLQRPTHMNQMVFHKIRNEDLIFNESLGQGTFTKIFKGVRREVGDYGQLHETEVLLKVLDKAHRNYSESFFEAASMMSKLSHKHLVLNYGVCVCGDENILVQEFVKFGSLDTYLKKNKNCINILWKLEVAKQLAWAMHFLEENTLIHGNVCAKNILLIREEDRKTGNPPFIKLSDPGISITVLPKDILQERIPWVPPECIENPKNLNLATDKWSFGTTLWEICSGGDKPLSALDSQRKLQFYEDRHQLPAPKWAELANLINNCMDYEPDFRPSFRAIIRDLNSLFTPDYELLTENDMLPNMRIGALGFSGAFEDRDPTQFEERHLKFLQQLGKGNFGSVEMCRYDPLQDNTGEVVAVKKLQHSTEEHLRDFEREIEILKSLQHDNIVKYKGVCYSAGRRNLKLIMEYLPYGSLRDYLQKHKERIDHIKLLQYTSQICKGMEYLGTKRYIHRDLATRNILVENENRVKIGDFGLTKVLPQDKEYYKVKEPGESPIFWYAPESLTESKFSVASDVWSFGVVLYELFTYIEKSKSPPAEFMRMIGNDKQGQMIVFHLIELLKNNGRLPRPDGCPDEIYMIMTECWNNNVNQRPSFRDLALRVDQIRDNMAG

Chain of Non-receptor tyrosine-protein kinase TYK2 (P29597 whole entry): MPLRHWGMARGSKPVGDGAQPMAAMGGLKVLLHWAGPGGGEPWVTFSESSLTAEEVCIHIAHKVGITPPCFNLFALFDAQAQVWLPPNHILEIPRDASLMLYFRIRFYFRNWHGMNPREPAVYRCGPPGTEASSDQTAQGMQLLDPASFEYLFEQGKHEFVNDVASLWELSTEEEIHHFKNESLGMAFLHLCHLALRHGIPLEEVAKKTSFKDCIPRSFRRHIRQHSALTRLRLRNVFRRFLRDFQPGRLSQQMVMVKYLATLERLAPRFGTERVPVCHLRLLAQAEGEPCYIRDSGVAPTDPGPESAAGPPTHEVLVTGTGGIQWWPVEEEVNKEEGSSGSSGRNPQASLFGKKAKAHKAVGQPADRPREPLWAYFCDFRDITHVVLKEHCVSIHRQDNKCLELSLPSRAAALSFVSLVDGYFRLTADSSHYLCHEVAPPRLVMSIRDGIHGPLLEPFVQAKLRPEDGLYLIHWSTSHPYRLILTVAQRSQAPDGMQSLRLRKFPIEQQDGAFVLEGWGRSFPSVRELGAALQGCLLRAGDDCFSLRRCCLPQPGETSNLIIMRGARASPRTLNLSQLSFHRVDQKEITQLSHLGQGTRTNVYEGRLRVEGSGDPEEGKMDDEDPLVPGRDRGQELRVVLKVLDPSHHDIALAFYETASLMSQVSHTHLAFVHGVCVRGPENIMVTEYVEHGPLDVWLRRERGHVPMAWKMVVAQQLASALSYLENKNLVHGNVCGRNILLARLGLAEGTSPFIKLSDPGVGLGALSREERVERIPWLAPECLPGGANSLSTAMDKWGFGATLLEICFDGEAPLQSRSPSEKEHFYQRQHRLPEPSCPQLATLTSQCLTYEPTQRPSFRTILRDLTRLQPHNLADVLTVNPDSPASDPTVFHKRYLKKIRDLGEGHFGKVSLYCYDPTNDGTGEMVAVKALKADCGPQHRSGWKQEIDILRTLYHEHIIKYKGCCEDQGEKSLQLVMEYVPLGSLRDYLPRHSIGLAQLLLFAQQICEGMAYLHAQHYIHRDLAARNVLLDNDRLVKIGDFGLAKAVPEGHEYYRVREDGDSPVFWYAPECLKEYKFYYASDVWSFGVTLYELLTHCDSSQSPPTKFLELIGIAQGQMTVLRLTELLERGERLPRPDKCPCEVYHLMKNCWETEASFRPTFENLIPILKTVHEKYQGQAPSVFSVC
Chain of Tyrosine-protein kinase JAK1 (Homo sapiens, UniProt P23458) (P23458 whole entry): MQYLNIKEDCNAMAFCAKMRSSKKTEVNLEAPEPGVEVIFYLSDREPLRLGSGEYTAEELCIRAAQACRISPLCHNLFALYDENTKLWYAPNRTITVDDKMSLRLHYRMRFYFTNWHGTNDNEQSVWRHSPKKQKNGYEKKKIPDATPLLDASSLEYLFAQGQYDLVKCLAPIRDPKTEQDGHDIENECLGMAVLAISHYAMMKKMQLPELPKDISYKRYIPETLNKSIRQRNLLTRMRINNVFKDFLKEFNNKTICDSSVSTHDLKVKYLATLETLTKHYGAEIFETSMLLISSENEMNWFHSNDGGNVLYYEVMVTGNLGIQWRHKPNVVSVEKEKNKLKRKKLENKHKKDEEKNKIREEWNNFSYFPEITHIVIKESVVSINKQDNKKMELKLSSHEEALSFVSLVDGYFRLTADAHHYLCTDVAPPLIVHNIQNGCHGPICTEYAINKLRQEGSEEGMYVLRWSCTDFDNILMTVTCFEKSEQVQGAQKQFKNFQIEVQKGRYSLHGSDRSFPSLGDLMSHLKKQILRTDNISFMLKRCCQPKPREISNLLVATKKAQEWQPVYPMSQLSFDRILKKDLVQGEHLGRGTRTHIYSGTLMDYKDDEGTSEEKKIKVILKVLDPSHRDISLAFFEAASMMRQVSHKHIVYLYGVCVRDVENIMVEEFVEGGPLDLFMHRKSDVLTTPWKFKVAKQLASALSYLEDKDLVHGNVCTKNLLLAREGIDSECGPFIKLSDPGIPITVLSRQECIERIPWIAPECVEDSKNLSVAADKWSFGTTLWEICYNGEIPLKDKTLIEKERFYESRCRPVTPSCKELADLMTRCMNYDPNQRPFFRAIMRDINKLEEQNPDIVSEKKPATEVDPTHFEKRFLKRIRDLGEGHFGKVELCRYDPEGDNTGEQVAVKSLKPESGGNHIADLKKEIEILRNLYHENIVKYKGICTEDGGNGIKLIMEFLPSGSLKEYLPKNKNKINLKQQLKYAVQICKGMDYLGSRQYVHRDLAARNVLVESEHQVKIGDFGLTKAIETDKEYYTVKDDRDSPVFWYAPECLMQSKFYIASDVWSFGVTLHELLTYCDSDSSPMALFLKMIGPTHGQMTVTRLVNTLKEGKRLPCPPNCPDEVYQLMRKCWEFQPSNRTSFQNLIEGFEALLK
Chain of Tyrosine-protein kinase JAK1 (Mus musculus, UniProt P52332) (P52332 whole entry): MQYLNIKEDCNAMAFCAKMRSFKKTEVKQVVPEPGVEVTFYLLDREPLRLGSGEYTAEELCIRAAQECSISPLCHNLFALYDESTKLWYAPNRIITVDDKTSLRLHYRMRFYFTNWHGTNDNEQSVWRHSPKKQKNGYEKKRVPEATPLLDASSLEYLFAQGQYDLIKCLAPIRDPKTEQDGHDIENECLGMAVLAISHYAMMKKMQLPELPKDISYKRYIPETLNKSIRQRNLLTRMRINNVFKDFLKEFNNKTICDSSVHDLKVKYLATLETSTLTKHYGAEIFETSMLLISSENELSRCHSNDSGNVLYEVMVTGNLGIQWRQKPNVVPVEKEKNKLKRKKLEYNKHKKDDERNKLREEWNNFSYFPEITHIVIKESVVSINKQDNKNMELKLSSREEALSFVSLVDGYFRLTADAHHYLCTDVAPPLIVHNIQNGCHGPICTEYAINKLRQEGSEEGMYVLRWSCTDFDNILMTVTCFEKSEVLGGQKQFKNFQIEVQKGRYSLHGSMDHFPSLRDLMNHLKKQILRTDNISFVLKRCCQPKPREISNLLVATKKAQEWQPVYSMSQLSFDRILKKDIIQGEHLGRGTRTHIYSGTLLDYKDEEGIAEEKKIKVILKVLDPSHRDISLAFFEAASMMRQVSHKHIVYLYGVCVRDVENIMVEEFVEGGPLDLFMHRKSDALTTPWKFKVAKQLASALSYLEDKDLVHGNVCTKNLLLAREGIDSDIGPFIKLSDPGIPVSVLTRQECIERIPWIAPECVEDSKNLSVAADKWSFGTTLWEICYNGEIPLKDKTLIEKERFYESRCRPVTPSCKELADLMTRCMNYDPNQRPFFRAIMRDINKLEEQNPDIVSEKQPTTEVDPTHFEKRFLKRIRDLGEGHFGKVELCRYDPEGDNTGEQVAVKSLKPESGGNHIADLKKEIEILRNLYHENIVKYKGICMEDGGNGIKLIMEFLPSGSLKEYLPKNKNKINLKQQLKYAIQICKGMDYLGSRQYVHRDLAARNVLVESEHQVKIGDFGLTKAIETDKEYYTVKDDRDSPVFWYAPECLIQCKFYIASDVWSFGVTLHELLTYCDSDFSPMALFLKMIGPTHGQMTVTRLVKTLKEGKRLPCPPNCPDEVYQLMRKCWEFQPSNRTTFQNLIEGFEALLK

Compound	IC50 [1] [µM]	IC50 [2] [µM]	IC50 [3] [µM]	IC50 [4] [µM]	IC50 [5] [µM]
NCCn1c(C2CCNCC2)nc2cc(C(N)=O)ccc21	0.05				
NCCCn1c2ccc(C(N)=O)cc2nc1[C@H]1CC[C@H](O)CC1		5.3	30.7	12.4	
NCCCn1c(C2CCNCC2)nc2cc(C(N)=O)ccc21		5.4	31	14.3	
NC(=O)c1ccc2c(c1)nc([C@H]1CC[C@H](O)CC1)n2CCO		0.08	4.3	1.8	3.2
C[C@@H](O)Cn1c2ccc(C(N)=O)cc2nc1[C@H]1CC[C@H](O)CC1		2	25.7	8.5	12.1
CNCCn1c(C2CCNCC2)nc2cc(C(N)=O)ccc21		0.09	4.1	1.5	3.1
NC(=O)c1ccc2c(c1)nc([C@H]1CC[C@H](O)CC1)n2CCCO		7	42.2	20.6	29.7
CNCCn1c2ccc(C(N)=O)cc2nc1[C@H]1CC[C@H](O)CC1		0.15	5.6	1.9	3.9
